Calls of active or inactive are those of the source. The calls are words filed in the database; no cut-off is given here.
Legend:
[1] = tested on: Cyperus difformis; assay: Post-emergence herbicidal activity against Cyperus difformis assessed as bleaching of stem/leaf parts; type: functional, organism-based; further: test concentration or dose not given here
[2] = tested on: Rotala indica; assay: Pre-emergence herbicidal activity against Rotala indica at 500 g a.i/ha measured after 14 days; type: functional, organism-based
[3] = tested on: Rotala indica; assay: Pre-emergence herbicidal activity against Rotala indica assessed as bleaching of stem/leaf parts; type: functional, organism-based
[4] = tested on: Lindernia procumbens; assay: Pre-emergence herbicidal activity against Lindernia procumbens at 500 g a.i/ha measured after 14 days; type: functional, organism-based
[5] = tested on: Ammannia multiflora; assay: Post-emergence herbicidal activity against Ammannia multiflora assessed as bleaching of stem/leaf parts; type: functional, organism-based
[6] = tested on: Echinochloa oryzicola; assay: Post-emergence herbicidal activity against Echinochloa oryzicola assessed as bleaching of stem/leaf parts; type: functional, organism-based
[7] = tested on: Schoenoplectiella juncoides; assay: Pre-emergence herbicidal activity against Schoenoplectiella juncoides assessed as bleaching of stem/leaf parts; type: functional, organism-based
[8] = tested on: Pontederia vaginalis; assay: Pre-emergence herbicidal activity against Monochoria vaginalis assessed as bleaching of stem/leaf parts; type: functional, organism-based
[9] = tested on: Echinochloa oryzicola; assay: Pre-emergence herbicidal activity against Echinochloa oryzicola at 500 g a.i/ha measured after 14 days; type: functional, organism-based
[10] = tested on: Ammannia multiflora; assay: Pre-emergence herbicidal activity against Ammannia multiflora assessed as bleaching of stem/leaf parts; type: functional, organism-based
[11] = tested on: Oryza sativa; assay: Phytotoxicity against Oryza sativa cv. Koshihikari (rice) at 500 g a.i/ha measured after 14 days; type: organism-based; conditions: in vivo, 336 h
[12] = tested on: Pontederia vaginalis; assay: Pre-emergence herbicidal activity against Monochoria vaginalis at 500 g a.i/ha measured after 14 days; type: functional, organism-based
[13] = tested on: Elatine triandra; assay: Pre-emergence herbicidal activity against Elatine triandra at 500 g a.i/ha measured after 14 days; type: functional, organism-based
[14] = tested on: Lindernia procumbens; assay: Post-emergence herbicidal activity against Lindernia procumbens assessed as bleaching of stem/leaf parts; type: functional, organism-based; further: test concentration or dose not given here
[15] = tested on: Lindernia procumbens; assay: Pre-emergence herbicidal activity against Lindernia procumbens assessed as bleaching of stem/leaf parts; type: functional, organism-based
[16] = tested on: Rotala indica; assay: Post-emergence herbicidal activity against Rotala indica assessed as bleaching of stem/leaf parts; type: functional, organism-based
[17] = tested on: Cyperus difformis; assay: Pre-emergence herbicidal activity against Cyperus difformis at 500 g a.i/ha measured after 14 days; type: functional, organism-based
[18] = tested on: Cyperus difformis; assay: Pre-emergence herbicidal activity against Cyperus difformis assessed as bleaching of stem/leaf parts; type: functional, organism-based
[19] = tested on: Ammannia multiflora; assay: Pre-emergence herbicidal activity against Ammannia multiflora at 500 g a.i/ha measured after 14 days; type: functional, organism-based
[20] = tested on: Elatine triandra; assay: Pre-emergence herbicidal activity against Elatine triandra assessed as bleaching of stem/leaf parts; type: functional, organism-based
[21] = tested on: Pontederia vaginalis; assay: Post-emergence herbicidal activity against Monochoria vaginalis assessed as bleaching of stem/leaf parts; type: functional, organism-based
[22] = tested on: Echinochloa oryzicola; assay: Pre-emergence herbicidal activity against Echinochloa oryzicola assessed as bleaching of stem/leaf parts; type: functional, organism-based
[23] = tested on: Elatine triandra; assay: Post-emergence herbicidal activity against Elatine triandra assessed as bleaching of stem/leaf parts; type: functional, organism-based; further: test concentration or dose not given here
[24] = tested on: Schoenoplectiella juncoides; assay: Pre-emergence herbicidal activity against Schoenoplectiella juncoides at 500 g a.i/ha measured after 14 days; type: functional, organism-based
[25] = tested on: Schoenoplectiella juncoides; assay: Post-emergence herbicidal activity against Schoenoplectiella juncoides assessed as bleaching of stem/leaf parts; type: functional, organism-based; further: test concentration or dose not given here
[26] = tested on: Pontederia vaginalis; assay: Pre-emergence herbicidal activity against Monochoria vaginalis at 33 g a.i/ha measured after 14 days; type: functional, organism-based
[27] = tested on: Elatine triandra; assay: Pre-emergence herbicidal activity against Elatine triandra at 33 g a.i/ha measured after 14 days; type: functional, organism-based
[28] = tested on: Cyperus difformis; assay: Pre-emergence herbicidal activity against Cyperus difformis at 33 g a.i/ha measured after 14 days; type: functional, organism-based
[29] = tested on: Rotala indica; assay: Pre-emergence herbicidal activity against Rotala indica at 33 g a.i/ha measured after 14 days; type: functional, organism-based
[30] = tested on: Lindernia procumbens; assay: Pre-emergence herbicidal activity against Lindernia procumbens at 33 g a.i/ha measured after 14 days; type: functional, organism-based
[31] = tested on: Ammannia multiflora; assay: Pre-emergence herbicidal activity against Ammannia multiflora at 33 g a.i/ha measured after 14 days; type: functional, organism-based
[32] = tested on: Oryza sativa; assay: Phytotoxicity against Oryza sativa cv. Koshihikari (rice) at 33 g a.i/ha measured after 14 days; type: organism-based; conditions: in vivo, 336 h
[33] = tested on: Echinochloa oryzicola; assay: Pre-emergence herbicidal activity against Echinochloa oryzicola at 33 g a.i/ha measured after 14 days; type: functional, organism-based
[34] = tested on: Schoenoplectiella juncoides; assay: Pre-emergence herbicidal activity against Schoenoplectiella juncoides at 33 g a.i/ha measured after 14 days; type: functional, organism-based

SMILES | Activity [1] | Activity [2] | Activity [3] | Activity [4] | Activity [5] | Activity [6] | Activity [7] | Activity [8] | Activity [9] | Activity [10] | Activity [11] | Activity [14] | Activity [15] | Activity [16] | Activity [18] | Activity [20] | Activity [21] | Activity [22] | Activity [23] | Activity [25] | also measured
Cn1cc(NC(=O)c2ccc(F)cc2)c(Oc2cccc(C(F)(F)F)c2)n1 | Active | inactive | Active | inactive | Active | Active | Active | Active | inactive | Active | Non-toxic | Active | Active | Active | Active | Active | Active | Active | Active | Active | Activity [12]: inactive; Activity [13]: inactive; Activity [17]: inactive; Activity [19]: inactive; Activity [24]: inactive
Cn1cc(C(=O)N2CCCC2)c(Oc2cccc(C(F)(F)F)c2)n1 | Active | inactive | Active | inactive | Active | Active | Active | Active | inactive | Active | Non-toxic | Active | Active | Active | Active | Active | Active | Active | Active | Active | Activity [12]: inactive; Activity [13]: inactive; Activity [17]: inactive; Activity [19]: inactive; Activity [24]: inactive
CSc1ccc(Oc2nn(C)cc2C(=O)Nc2ccc(F)cc2F)cc1C(F)(F)F | Active | Active | Active | Active | Active | Active | Active | Active | Active | Active | Non-toxic | Active | Active | Active | Active | Active | Active | Active | Active | Active | Activity [12]: Active; Activity [13]: Active; Activity [17]: Active; Activity [19]: Active; Activity [24]: inactive
Cn1cc(C(=O)NCC2CCCO2)c(Oc2cccc(C(F)(F)F)c2)n1 (stereo not given) | Active | inactive | Active | inactive | Active | Active | Active | Active | inactive | Active | Non-toxic | Active | Active | Active | Active | Active | Active | Active | Active | Active | Activity [12]: inactive; Activity [13]: inactive; Activity [17]: inactive; Activity [19]: inactive; Activity [24]: inactive
C#CCNC(=O)c1cn(C)nc1Oc1cccc(C(F)(F)F)c1 | Active | inactive | Active | inactive | Active | Active | Active | Active | inactive | Active | Non-toxic | Active | Active | Active | Active | Active | Active | Active | Active | Active | Activity [12]: inactive; Activity [13]: inactive; Activity [17]: inactive; Activity [19]: inactive; Activity [24]: inactive
O=C(Nc1ccc(F)cc1F)c1cn(CCF)nc1Oc1cccc(C(F)(F)F)c1 | Active |  | Active |  | Active | Active | Active | Active |  | Active |  | Active | Active | Active | Active | Active | Active | Active | Active | Active | Activity [26]: inactive; Activity [27]: inactive; Activity [28]: inactive; Activity [29]: inactive; Activity [30]: inactive; Activity [31]: inactive; Activity [32]: Non-toxic; Activity [33]: inactive; Activity [34]: inactive
Cn1cc(C(=O)Nc2ccc(Cl)cc2F)c(Oc2cccc(C(F)(F)F)c2)n1 | Active |  | Active |  | Active | Active | Active | Active |  | Active |  | Active | Active | Active | Active | Active | Active | Active | Active | Active | Activity [26]: Active; Activity [27]: Active; Activity [28]: Active; Activity [29]: Active; Activity [30]: Active; Activity [31]: Active; Activity [32]: Non-toxic; Activity [33]: inactive; Activity [34]: inactive
CCCn1cc(C(=O)Nc2ccc(F)cc2F)c(Oc2cccc(C(F)(F)F)c2)n1 | Active |  | Active |  | Active | Active | Active | Active |  | Active |  | Active | Active | Active | Active | Active | Active | Active | Active | Active | Activity [26]: inactive; Activity [27]: inactive; Activity [28]: inactive; Activity [29]: inactive; Activity [30]: inactive; Activity [31]: inactive; Activity [32]: Non-toxic; Activity [33]: inactive; Activity [34]: inactive
Cc1ccccc1NC(=O)c1cn(C)nc1Oc1cccc(C(F)(F)F)c1 | Active |  | Active |  | Active | Active | Active | Active |  | Active |  | Active | Active | Active | Active | Active | Active | Active | Active | Active | Activity [26]: Active; Activity [27]: Active; Activity [28]: Active; Activity [29]: Active; Activity [30]: Active; Activity [31]: Active; Activity [32]: Non-toxic; Activity [33]: inactive; Activity [34]: inactive

Reference: ChEMBL document CHEMBL3046607, “Synthesis and Herbicidal Activity of New 1-Alkyl-3-aryloxypyrazole-4-carboxamide Derivatives” (J Pestic Sci, 2004)
